Assay results published in US11566007B2, “Ras inhibitors” (Revolution Medicines, Inc., priority 2019, dated 2023).

Legend:
[1] = tested on: NCI-H358 cells (K-Ras G12C); assay: Potency assay: pERK in NCI-H358 cells; format: cell-based, human; details: Homo sapiens, NCI-H358; H358 KRAS G12C; read-out: pERK EC50
Procedure, shortened: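 pERK decrease read by AlphaLISA SureFire p-ERK1/2 or In-Cell Western after 4 h compound exposure at 37 °C, 5% CO2.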

NCI-H358 (K-Ras G12C) = assay: CellTiter-Glo cell viability assay, NCI-H358; format: cell-based, human; details: Homo sapiens, NCI-H358, 120 h, NCI-H358, 5-day treatment; class symbols; read-out: Additional H358 Cell Viability assay data (K-Ras G12C, IC50)
Procedure, shortened: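 Cells seeded, compound added directly, 5-day exposure. Plates to RT ~30 min, CellTiter-Glo luminescence read. Normalized to DMSO avg (x100); 4-parameter logistic fit.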

KRAS G12S = KRAS G12S (Homo sapiens (Human), UniProt P01116+P62937, G12S); assay: Ras-Raf (BRAF RBD) disruption / FRET / MOA assay, KRAS G12S; format: biochemical; details: Ras-Raf disruption/FRET/MOA assay; class symbols; read-out: KRAS G12S FRET data IC50
KRAS G12S, sequence (P01116-2 other isoform, or with tags, fused parts or gaps G12S): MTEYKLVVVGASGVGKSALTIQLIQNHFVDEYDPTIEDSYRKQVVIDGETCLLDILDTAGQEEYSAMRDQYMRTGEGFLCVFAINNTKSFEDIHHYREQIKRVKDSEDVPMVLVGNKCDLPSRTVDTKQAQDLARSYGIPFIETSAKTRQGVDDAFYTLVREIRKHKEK
KRAS G12S, sequence (P62937 whole entry): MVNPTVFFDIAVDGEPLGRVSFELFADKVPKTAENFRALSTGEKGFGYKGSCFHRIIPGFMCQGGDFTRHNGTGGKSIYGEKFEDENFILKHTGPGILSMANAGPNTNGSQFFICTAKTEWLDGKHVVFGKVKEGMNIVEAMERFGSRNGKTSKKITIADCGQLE
Procedure, shortened: (§1)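 TR-FRET read-out: a drop in ratio relative to DMSO wells marks disruption of the Ras:RAF complex, reported as IC50. Compounds (3-fold series, 10 points, top 30 μM final) incubated 3 h at 25° C before Eu-anti-His 10 nM and APC-anti-GST 50 nM, 1.5 h more.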

KRAS G12D = KRAS G12D (Homo sapiens (Human), UniProt P01116+P62937, G12D); assay: Ras-Raf (BRAF RBD) disruption / FRET / MOA assay, KRAS G12D; format: biochemical; details: Ras-Raf disruption/FRET/MOA assay; class symbols; read-out: KRAS G12D FRET data IC50
KRAS G12D, sequence (P01116-2 other isoform, or with tags, fused parts or gaps G12D): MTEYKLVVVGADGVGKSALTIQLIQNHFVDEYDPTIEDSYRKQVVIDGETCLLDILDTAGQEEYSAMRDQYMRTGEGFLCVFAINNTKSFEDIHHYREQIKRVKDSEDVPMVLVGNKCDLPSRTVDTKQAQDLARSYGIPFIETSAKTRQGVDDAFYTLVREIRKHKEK
KRAS G12D, sequence (P62937 whole entry): as the sequence (P62937 whole entry) above
Procedure, shortened: as §1

KRAS WT = KRAS WT (Homo sapiens (Human), UniProt P01116+P62937); assay: Ras-Raf (BRAF RBD) disruption / FRET / MOA assay, KRAS WT; format: biochemical; details: read-out: IC50* KRAS WT FRET data
KRAS WT, sequence (P01116-2 other isoform, or with tags, fused parts or gaps): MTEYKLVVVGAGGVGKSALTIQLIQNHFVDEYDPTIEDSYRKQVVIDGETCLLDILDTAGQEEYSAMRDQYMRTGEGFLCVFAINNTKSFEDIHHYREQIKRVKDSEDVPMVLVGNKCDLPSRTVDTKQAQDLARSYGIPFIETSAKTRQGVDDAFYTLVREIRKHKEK
KRAS WT, sequence (P62937 whole entry): as the sequence (P62937 whole entry) above
Procedure, shortened: as §1

Row | Structure (SMILES) | EC50 [1] [nM] | IC50 (NCI-H358 (K-Ras G12C)) [nM] | IC50 (KRAS G12S) [nM] | IC50 (KRAS G12D) [nM] | IC50 (KRAS WT) [nM]
1 | CCn1c(-c2cccnc2[C@H](C)OC)c2c3cc(ccc31)-c1nc(co1)C[C@H](NC(=O)[C@@H](COC1CN(C(=O)C#CC(C)(C)N(C)C)C1)C(C)C)C(=O)N1CCC[C@H](N1)C(=O)OCC(C)(C)C2 (atropisomer, axis not shown) [Example A675, (2R)-2-(((1-(4-(dimethylamino)-4-methylpent-2-ynoyl)azetidin-3-yl)oxy)methyl)-N-((6^3S,4S,Z)-1^1-ethyl-1^2-(2-((S)-1-methoxyethyl)pyridin-3-yl)-10,10-dimethyl-5,7-dioxo-6^1,6^2,6^3,6^4,6^5,6^6-hexahydro-1^1H-8-oxa-2(2,4)-oxazola-1(5,3)-indola-6(1,3)-pyridazinacycloundecaphane-4-yl)-3-methylbutanamide] | < 5000 | < 10 | > 10000 | > 10000 | > 10000
2 | C=CC(=O)N1CCN(C(=O)N(C)[C@H](C(=O)N[C@H]2Cc3nc(cs3)-c3ccc4c(c3)c(c(-c3cccnc3[C@H](C)OC)n4CC(F)(F)F)CC(C)(C)COC(=O)[C@@H]3CCCN(N3)C2=O)C(C)C)CC12CC2 (atropisomer, axis not shown) [Example A679] | < 5000 | 10 to 100 | 10 to 100 | 100 to 1000 | 10 to 100
3 | C=C(OC)C(=O)N1CC2(CCN(C(=O)N(C)[C@H](C(=O)N[C@H]3Cc4nc(cs4)-c4ccc5c(c4)c(c(-c4cccnc4[C@H](C)OC)n5CC)CC(C)(C)COC(=O)[C@@H]4CCCN(N4)C3=O)C(C)C)CC2)C1 (atropisomer, axis not shown) [Example A681] | < 5000 | 10 to 100 | 100 to 1000 | 100 to 1000 | 100 to 1000
4 | C=C(F)C(=O)N1CC2(CCN(C(=O)N(C)[C@H](C(=O)N[C@H]3Cc4nc(cs4)-c4ccc5c(c4)c(c(-c4cccnc4[C@H](C)OC)n5CC)CC(C)(C)COC(=O)[C@@H]4CCCN(N4)C3=O)C(C)C)CC2)C1 (atropisomer, axis not shown) [Example A682] | < 5000 | 10 to 100 | 100 to 1000 | 100 to 1000 | 100 to 1000
5 | C=CC(=O)N1CC2(CCN2C(=O)N(C)[C@H](C(=O)N[C@H]2Cc3cccc(c3)-c3ccc4c(c3)c(c(-c3cccnc3[C@H](C)OC)n4CC)CC(C)(C)COC(=O)[C@@H]3CCCN(N3)C2=O)C(C)C)C1 (atropisomer, axis not shown) [Example A684] | < 5000 | < 10 | 100 to 1000 | 1000 to 10000 | 100 to 1000
6 | C=CC(=O)N1C[C@H]2CN(C(=O)N(C)[C@H](C(=O)N[C@H]3Cc4nc(cs4)-c4ccc5c(c4)c(c(-c4cccnc4[C@H](C)OC)n5CC)CC(C)(C)COC(=O)[C@@H]4CCCN(N4)C3=O)C(C)C)[C@H]2C1 (atropisomer, axis not shown) [Example A686] | < 5000 | < 10 | 100 to 1000 | 1000 to 10000 | 100 to 1000
7 | C=CC(=O)N1CC[C@H]2[C@@H](C1)CN2C(=O)N(C)[C@H](C(=O)N[C@H]1Cc2nc(cs2)-c2ccc3c(c2)c(c(-c2cccnc2[C@H](C)OC)n3CC)CC(C)(C)COC(=O)[C@@H]2CCCN(N2)C1=O)C(C)C (atropisomer, axis not shown) [Example A687] | < 5000 | 10 to 100 | 100 to 1000 | 1000 to 10000 | 100 to 1000
8 | CCn1c(-c2cccnc2[C@H](C)OC)c2c3cc(ccc31)-c1csc(n1)C[C@H](NC(=O)C[C@@H]1COC3(CN(C(=O)C#CC(C)(C)N(C)C)C3)O1)C(=O)N1CCC[C@H](N1)C(=O)OCC(C)(C)C2 (atropisomer, axis not shown) [Example A691] | < 5000 | < 10 | 1000 to 10000 | 1000 to 10000 | 1000 to 10000
9 | CCn1c(-c2cccnc2[C@H](C)OC)c2c3cc(ccc31)-c1cnc(o1)C[C@H](NC(=O)[C@H](C(C)C)N(C)C(=O)[C@H]1CCN(C(=O)C#CC(C)(C)N(C)C)C1)C(=O)N1CCC[C@H](N1)C(=O)OCC(C)(C)C2 (atropisomer, axis not shown) [Example A692, (3S)-1-(4-(dimethylamino)-4-methylpent-2-ynoyl)-N-((2S)-1-(((6^3S,4S)-1^1-ethyl-1^2-(2-((S)-1-methoxyethyl)pyridin-3-yl)-10,10-dimethyl-5,7-dioxo-6^1,6^2,6^3,6^4,6^5,6^6-hexahydro-1^1H-8-oxa-2(5,2)-oxazola-1(5,3)-indola-6(1,3)-pyridazinacycloundecaphane-4-yl)amino)-3-methyl-1-oxobutan-2-yl)-N-methylpyrrolidine-3-carboxamide] | < 5000 | < 10 | 1000 to 10000 | > 10000 | 1000 to 10000
10 | C=CC(=O)N1CCOC2(CCN(C(=O)N(C)[C@H](C(=O)N[C@H]3Cc4nc(cs4)-c4ccc5c(c4)c(c(-c4cccnc4[C@H](C)OC)n5CC)CC(C)(C)COC(=O)[C@@H]4CCCN(N4)C3=O)C(C)C)CC2)C1 (atropisomer, axis not shown) [Example A695] | < 5000 | 10 to 100 | 100 to 1000 | 1000 to 10000 | 100 to 1000
11 | C=CC(=O)N1CCC2(CC1)CCN(C(=O)N(C)[C@H](C(=O)N[C@H]1Cc3nc(cs3)-c3ccc4c(c3)c(c(-c3cccnc3[C@H](C)OC)n4CC)CC(C)(C)COC(=O)[C@@H]3CCCN(N3)C1=O)C(C)C)CC2 (atropisomer, axis not shown) [Example A697] | < 5000 | 10 to 100 | 100 to 1000 | 100 to 1000 | 100 to 1000
12 | C=CC(=O)N1CCC(F)(C(=O)N(C)[C@H](C(=O)N[C@H]2Cc3nc(cs3)-c3ccc4c(c3)c(c(-c3cccnc3[C@H](C)OC)n4CC)CC(C)(C)COC(=O)[C@@H]3CCCN(N3)C2=O)C(C)C)CC1 (atropisomer, axis not shown) [Example A700] | < 5000 | < 10 | 100 to 1000 | 100 to 1000 | 100 to 1000
13 | C=CC(=O)N1CCO[C@H]2CN(C(=O)N(C)[C@H](C(=O)N[C@H]3Cc4nc(cs4)-c4ccc5c(c4)c(c(-c4cccnc4[C@H](C)OC)n5CC)CC(C)(C)COC(=O)[C@@H]4CCCN(N4)C3=O)C(C)C)C[C@H]21 (atropisomer, axis not shown) [Example A706] | < 5000 | < 10 | 1000 to 10000 | > 10000 | 1000 to 10000
14 | CO[C@@H](C)c1ncccc1-c1c2c3cc(ccc3n1CC(F)(F)F)-c1cnc(o1)C[C@H](NC(=O)[C@H](C(C)C)N(C)C(=O)[C@H]1CCN(C(=O)C#CC(C)(C)N(C)C)C1)C(=O)N1CCC[C@H](N1)C(=O)OCC(C)(C)C2 (atropisomer, axis not shown) [Example A707] | < 5000 | < 10 | 1000 to 10000 | 1000 to 10000 | 1000 to 10000
15 | CO[C@@H](C)c1ncccc1-c1c2c3nc(ccc3n1CC(F)(F)F)-c1cccc(c1)C[C@H](NC(=O)[C@@H](COC1CN(C(=O)C#CC(C)(C)N(C)C)C1)C(C)C)C(=O)N1CCC[C@H](N1)C(=O)OCC(C)(C)C2 (atropisomer, axis not shown) [Example A724] | < 5000 | < 10 | > 10000 | > 10000 | > 10000
